Entries after “also recorded” stand apart in the source; their conditions may differ. Marks after values point to notes of the source that are not given here.
Experiments:
Drosophila melanogaster [1] = assay: Toxicity assay, survival of larvae to adults (simple treatment)
Protocol: Toxicity was assayed according to our standard protocols. […] Tested groups consisted of larvae fed with Drosophila Instant Medium (Formula 4–24, Carolina Biological Supply, Burlington, NC, USA) supplemented with the assessed compounds concentrations. Emerging adults of all groups were counted and toxicity was determined as the percentage of hatched individuals in each treatment compared with the negative control.

Drosophila melanogaster [2] = assay: Antitoxicity assay, combined treatment with 0.15 M H2O2
Protocol: Toxicity was assayed according to our standard protocols. CRB and SFRB were tested at five concentrations: 1, 4, 8.12, 32.5 and 130 mg/mL and 0.16, 0.625, 1.25, 5 and 20 mg/mL, respectively. […] Tested groups consisted of larvae fed with Drosophila Instant Medium (Formula 4–24, Carolina Biological Supply, Burlington, NC, USA) supplemented with the assessed compounds concentrations. Emerging adults of all groups were counted and toxicity was determined as the percentage of hatched individuals in each treatment compared with the negative control.

Drosophila melanogaster [3] = assay: Chronic treatments: lifespan and healthspan assays; assay type: in vivo; conditions: for Healthspan (80th Percentile) / Mean Lifespan: chronic, mean ±SE; for lifespan compared with concurrent control: all tested concentrations
Protocol: Flies used in the lifespan assays show the same genetic background those used in the genotoxicity assays in order to compare both result. The treated adults consisted of the F1 progeny from mwh and flr^3 parental strains produced by a 24 h eggs-lying in yeast medium. The same compounds and concentrations as in the toxicity/genotoxicity experiments were assayed. Lifespan assays were carried out at 25 °C according to the procedure described by Fernandez-Bedmar et al.. Briefly, synchronized 72 ± 12-h-old trans-heterozygous larvae were washed in distilled water, collected and transferred in groups of 100 individuals into test vials containing 0.85 g Drosophila Instant Medium and 4 mL of the different concentrations of the compounds to be assayed. Emerged adults from pupae were collected under CO2 anaesthesia and placed in groups of 25 individuals of the same sex into sterile vials containing 0.21 g Drosophila Instant Medium and 1 mL of different concentrations of the compounds to be tested. Flies were chronically treated during all their life. The number of survivors was determined twice a week in three different replicates.

[4] = system: Sat-α repetitive sequences of HL-60 cells; assay: Methylation status by qMSP, Sat-α; assay type: cell-based, human; conditions: HL-60, 5 h
Protocol: (§1) Then, DNA was extracted similarly to previously described DNA fragmentation assay. After that, the DNA was converted with bisulphite (EZ DNA Methylation-Gold™ Kit, Zymo Research, Irvine, CA, USA). Bisulphite-modified DNA was used for fluorescence-based real-time quantitative Methylation-Specific PCR (qMSP) using 5 µM of each forward and reverse primer (Isogen Life Science BV, Utrecht, The Netherlands), 2 µL of iTaq™ Universal SYBR® Green Supermix (Bio-Rad Laboratories, Inc., Hercules, CA, USA); it contains antibody-mediated hot-start iTaq DNA polymerase, dNTPs, MgCl2, SYBR® Green I dye, enhancers, stabilizers and a blend of passive reference dyes including ROX and fluorescein) and 25 ng of bisulphite converted genomic DNA.
(§2) PCR conditions included initial denaturalisation at 95 °C for 3 min and amplification which consisted of 45 cycles at 95 °C for 10 s, 60 °C for 15 s and 72 °C for 15 s, taking picture at the end of each elongation cycle. After that, melting curve was determined increasing 0.5 °C each 0.05 s from 60 °C to 95 °C and taking pictures.
(§3) QMSP was carried out in 48 well plates in MiniOpticon Real-Time PCR System (MJ Mini Personal Thermal Cycler, Bio-Rad) and were analysed by Bio-Rad CFX Manager 3.1 Software. The housekeeping Alu-C4 was used as a reference to correct for total DNA input. […] Each sample was analysed in triplicate. […]

[5] = system: human umbilical endothelial cells; conditions: 30 mM GLU; cited from earlier work
[6] = system: Alu M1 repetitive sequences of HL-60 cells; assay: Methylation status by qMSP, Alu M1; assay type: cell-based, human; conditions: HL-60, 5 h, 11 mM GLU
Protocol: as §1, §2, §3

Drosophila = conditions: cited from earlier work
CHO cells = system: CHO cells; parameters: method as in PMID 7588651; conditions: 1 mM TAU; cited from earlier work
Drosophila melanogaster [7] = assay: Genotoxicity, wing spot test (SMART); conditions: simple treatment; for Large Simple Spots (>2 Cells) m = 5 / Small Single Spots (1–2 Cells) m = 2 / Total Spots m = 2: No. of spots in parentheses
Protocol: The wing spot test was performed to evaluate genotoxicity assays following the standard procedure [14]. Briefly, trans-heterozygous larvae for mwh and flr^3 genes were obtained by crossing four day-old virgin flr^3 females with mwh males in a 2:1 ratio. Four days after fertilization, females were allowed to lay eggs in fresh yeast medium (25 g yeast and 4 mL sterile distilled water) for 8 h in order to obtain synchronized larvae. After 72 h, larvae were collected, washed with distilled water, and clustered in groups of 100 individuals. […] Adult flies were collected and stored in 70% ethanol until the wings were removed and mounted on slides using Faure’s solution. Mutant spots were assessed in both dorsal and ventral surfaces of the wings in a bright light microscope at 400× magnification. The frequencies of each type of mutant clone per wing (single, large or twin spot) were compared with the concurrent negative control [43]. All inconclusive and positive results (p > 0.05) were analysed with the nonparametric U-test of Mann, Whitney and Wilcoxon (α = β = 0.05).

calf thymus DNA = system: calf thymus DNA; parameters: method as in PMID 11787620; conditions: 5–20 mM TAU; cited from earlier work
[8] = GLU 2.7 mM vs concurrent water control
[9] = GLU 11 mM vs concurrent water control
[10] = GLU 21.86 mM vs concurrent water control
[11] = GLU 87.5 mM vs concurrent water control
[12] = GLU 350 mM vs concurrent water control
[13] = TAU 0.25 mM vs concurrent water control
[14] = TAU 1 mM vs concurrent water control
[15] = TAU 2 mM vs concurrent water control
[16] = TAU 8 mM vs concurrent water control
[17] = TAU 32 mM vs concurrent water control

SMILES: OC[C@H]1OC(O)[C@H](O)[C@@H](O)[C@@H]1O (stereo partly drawn) [GLU, Glucose]
- Survival (%) Simple Treatment (Drosophila melanogaster [1]; GLU 2.7 mM): 98%
- Survival (%) Simple Treatment (Drosophila melanogaster [1]; GLU 11 mM): 92.65%
- Survival (%) Simple Treatment (Drosophila melanogaster [1]; GLU 21.86 mM): 90.32%
- Survival (%) Simple Treatment (Drosophila melanogaster [1]; GLU 87.5 mM): 70.3 * %
- Survival (%) Simple Treatment (Drosophila melanogaster [1]; GLU 350 mM): 65 * %
- Survival (%) Combined Treatment (Drosophila melanogaster [2]; GLU 2.7 mM + 0.15 M hydrogen peroxide): 60%
- Survival (%) Combined Treatment (Drosophila melanogaster [2]; GLU 11 mM + 0.15 M hydrogen peroxide): 84.35 * %
- Survival (%) Combined Treatment (Drosophila melanogaster [2]; GLU 21.86 mM + 0.15 M hydrogen peroxide): 88.65 * %
- Survival (%) Combined Treatment (Drosophila melanogaster [2]; GLU 87.5 mM + 0.15 M hydrogen peroxide): 79 * %
- Survival (%) Combined Treatment (Drosophila melanogaster [2]; GLU 350 mM + 0.15 M hydrogen peroxide): 72 * %
- increase of the quality of life (healthspan) (Drosophila melanogaster [3]; 350 mM GLU): 34%
- Healthspan Difference (%) (Drosophila melanogaster [3]; [8]): −4.5%
- Mean Lifespan Difference (%) (Drosophila melanogaster [3]; [8]): 2.65%
- Healthspan (80th Percentile) (Drosophila melanogaster [3]; GLU 2.7 mM): 31.14 ± 1.53 days
- Mean Lifespan (Drosophila melanogaster [3]; GLU 2.7 mM): 61.25 ± 2.12 days
- Healthspan Difference (%) (Drosophila melanogaster [3]; [9]): 25.65%
- Mean Lifespan Difference (%) (Drosophila melanogaster [3]; [9]): 8.76%
- Healthspan (80th Percentile) (Drosophila melanogaster [3]; GLU 11 mM): 41 ± 3.4 days
- Mean Lifespan (Drosophila melanogaster [3]; GLU 11 mM): 64.9 ± 2.05 days
- Healthspan Difference (%) (Drosophila melanogaster [3]; [10]): −5.8%
- Mean Lifespan Difference (%) (Drosophila melanogaster [3]; [10]): 5.9%
- Healthspan (80th Percentile) (Drosophila melanogaster [3]; GLU 21.86 mM): 30.66 ± 3.62 days
- Mean Lifespan (Drosophila melanogaster [3]; GLU 21.86 mM): 63.21 ± 2.08 days
- Healthspan Difference (%) (Drosophila melanogaster [3]; [11]): −8.4%
- Mean Lifespan Difference (%) (Drosophila melanogaster [3]; [11]): 1.39%
- Healthspan (80th Percentile) (Drosophila melanogaster [3]; GLU 87.5 mM): 29.9 ± 1.96 days
- Mean Lifespan (Drosophila melanogaster [3]; GLU 87.5 mM): 60.5 ± 2.5 days
- Healthspan Difference (%) (Drosophila melanogaster [3]; [12]): −34%
- Mean Lifespan Difference (%) (Drosophila melanogaster [3]; [12]): −1.2%
- Healthspan (80th Percentile) (Drosophila melanogaster [3]; GLU 350 mM): 21.5 ± 0.76 days
- Mean Lifespan (Drosophila melanogaster [3]; GLU 350 mM): 59 ± 3.1 days
- lifespan compared with concurrent control (Drosophila melanogaster [3]): did not significantly differ
- methylation status of satellite alpha sequences ([4]; 350 mM GLU): hypermethylated
- cytotoxicity [5]: cytotoxicity was demonstrated
- methylation status of Alu sequences [6]: hypermethylated; also recorded: significantly increased

SMILES: NCCS(=O)(=O)O [TAU, 2-aminoethanesulfonic acid]
- lifespan of Drosophila (Drosophila; 1.6% TAU): decrease the lifespan
- adult lifespan of Drosophila (Drosophila; TAU 0.05 to 0.20 M): had no influence on adult lifespan
- estimated mean values of survival (Drosophila; TAU 8–24 mM): increased the estimated mean values of survival
- Survival (%) Combined Treatment (Drosophila melanogaster [2]; TAU 0.25 mM + 0.15 M hydrogen peroxide): 40.76%
- Survival (%) Combined Treatment (Drosophila melanogaster [2]; TAU 1 mM + 0.15 M hydrogen peroxide): 57.69 * %
- Survival (%) Combined Treatment (Drosophila melanogaster [2]; TAU 2 mM + 0.15 M hydrogen peroxide): 56.9 * %
- Survival (%) Combined Treatment (Drosophila melanogaster [2]; TAU 8 mM + 0.15 M hydrogen peroxide): 40%
- Survival (%) Combined Treatment (Drosophila melanogaster [2]; TAU 32 mM + 0.15 M hydrogen peroxide): 42.3%
- Healthspan Difference (%) (Drosophila melanogaster [3]; [13]): −7.3%
- Mean Lifespan Difference (%) (Drosophila melanogaster [3]; [13]): 4.57%
- Healthspan (80th Percentile) (Drosophila melanogaster [3]; TAU 0.25 mM): 34.98 ± 3.954 days
- Mean Lifespan (Drosophila melanogaster [3]; TAU 0.25 mM): 67.94 ± 2.603 days
- Healthspan Difference (%) (Drosophila melanogaster [3]; [14]): −20%
- Mean Lifespan Difference (%) (Drosophila melanogaster [3]; [14]): 2.81%
- Healthspan (80th Percentile) (Drosophila melanogaster [3]; TAU 1 mM): 30.22 ± 1.878 days
- Mean Lifespan (Drosophila melanogaster [3]; TAU 1 mM): 66.81 ± 3.215 days
- Healthspan Difference (%) (Drosophila melanogaster [3]; [15]): −6.4%
- Mean Lifespan Difference (%) (Drosophila melanogaster [3]; [15]): −4.8%
- Healthspan (80th Percentile) (Drosophila melanogaster [3]; TAU 2 mM): 35.357 ± 0.9 days
- Mean Lifespan (Drosophila melanogaster [3]; TAU 2 mM): 61.83 ± 2.25 days
- Healthspan Difference (%) (Drosophila melanogaster [3]; [16]): −2.6%
- Mean Lifespan Difference (%) (Drosophila melanogaster [3]; [16]): 7.95%
- Healthspan (80th Percentile) (Drosophila melanogaster [3]; TAU 8 mM): 36.8 ± 2.832 days
- Mean Lifespan (Drosophila melanogaster [3]; TAU 8 mM): 70.142 ± 2.385 days
- Healthspan Difference (%) (Drosophila melanogaster [3]; [17]): −3.2%
- Mean Lifespan Difference (%) (Drosophila melanogaster [3]; [17]): 1.6%
- Healthspan (80th Percentile) (Drosophila melanogaster [3]; TAU 32 mM): 36.57 ± 3.55 days
- Mean Lifespan (Drosophila melanogaster [3]; TAU 32 mM): 66.04 ± 2.055 days
- lifespan compared with concurrent control (Drosophila melanogaster [3]): did not significantly differ
- methylation status of satellite alpha sequences ([4]; both tested concentrations of TAU): significantly hypermethylated
- induction of chromosome aberrations and sister chromatid exchanges (CHO cells): not able to induce neither chromosome aberrations nor sister chromatid exchanges
- Twin Spots m = 5 (Drosophila melanogaster [7]; TAU 1 mM): 0 clones per wing
- Large Simple Spots (>2 Cells) m = 5 (Drosophila melanogaster [7]; TAU 1 mM): 0.08 (3) clones per wing
- Small Single Spots (1–2 Cells) m = 2 (Drosophila melanogaster [7]; TAU 1 mM): 0.027 (1) clones per wing
- Total Spots m = 2 (Drosophila melanogaster [7]; TAU 1 mM): 0.108 (4) clones per wing
- Twin Spots m = 5 (Drosophila melanogaster [7]; TAU 32 mM): 0 clones per wing
- Large Simple Spots (>2 Cells) m = 5 (Drosophila melanogaster [7]; TAU 32 mM): 0.05 (2) clones per wing
- Small Single Spots (1–2 Cells) m = 2 (Drosophila melanogaster [7]; TAU 32 mM): 0.15 (6) clones per wing
- Total Spots m = 2 (Drosophila melanogaster [7]; TAU 32 mM): 0.2 (8) clones per wing
- protection of DNA against oxidative damage (calf thymus DNA): DNA-protected concentrations against oxidative damage
